From the Kinase Knowledgebase extract (Sharma et al. 2016)

These compounds were tested against CDK2 (human) (UniProt P24941) (assay: Enzyme Assay).

| IC50 | Structure (SMILES) |
| --- | --- |
| 100 µM | CC(C)n1nnc2c(NCc3ccccc3)nc(NCCCO)nc21 |
| 7.3 µM | CC(C)C(CO)Nc1nc(NCc2ccccc2)c2nnn(C(C)C)c2n1 (stereo not given) |
| 0.84 µM | CC(C)C(CO)Nc1nc(NCc2ccccc2O)c2nnn(C(C)C)c2n1 (stereo not given) |
| 11.3 µM | CC(C)n1nnc2c(NCc3ccccc3)nc(N[C@H]3CC[C@H](N)CC3)nc21 |
| > 100 µM | CCCCCCNc1nc(NC(CO)c2ccccc2)c2nnn(C(C)C)c2n1 (stereo not given) |
| 13.7 µM | COc1ccc(CNc2nc(N[C@@H]3CCCC[C@@H]3N)nc3c2nnn3C(C)C)cc1O |
| 4.1 µM | CCC(CO)Nc1nc(NCc2ccccc2)c2nnn(C(C)C)c2n1 (stereo not given) |
| 1.1 µM | CC(C)n1nnc2c(Nc3cccc(Cl)c3)nc(N[C@H]3CC[C@H](N)CC3)nc21 |
| > 100 µM | O[C@H]1CC[C@H](Nc2nc(Nc3cccc(Cl)c3)c3nnn(Cc4ccccc4)c3n2)CC1 |
| 2.3 µM | CCC(CO)Nc1nc(NCc2ccc(OC)c(O)c2)c2nnn(C(C)C)c2n1 (stereo not given) |
| > 100 µM | O[C@H]1CC[C@H](Nc2nc(NCC3CCCCC3)c3nnn(Cc4ccccc4)c3n2)CC1 |
| 4.1 µM | CC(C)n1nnc2c(NCc3ccccc3O)nc(N[C@@H]3CCCC[C@@H]3N)nc21 |
| 16.4 µM | CC(C)n1nnc2c(NCc3ccccc3O)nc(N[C@H]3CC[C@H](N)CC3)nc21 |
| 2.8 µM | CC(C)n1nnc2c(NCc3ccc(O)cc3)nc(N[C@H]3CC[C@H](N)CC3)nc21 |
| 8 µM | CC(C)C(CO)Nc1nc(NCc2cccc(O)c2)c2nnn(C(C)C)c2n1 (stereo not given) |
| 20 µM | CC(C)C(CO)Nc1nc(Nc2cccc(Cl)c2)c2nnn(C(C)C)c2n1 (stereo not given) |
| 4.9 µM | CC(C)n1nnc2c(NCc3cccc(O)c3)nc(N[C@H]3CC[C@H](N)CC3)nc21 |
| 1.2 µM | CCC(CO)Nc1nc(NCc2ccccc2O)c2nnn(C(C)C)c2n1 (stereo not given) |
| 10 µM | CCC(CO)Nc1nc(NCc2cccc(O)c2)c2nnn(C(C)C)c2n1 (stereo not given) |
| > 100 µM | CC(C)n1nnc2c(NCc3ccccc3O)nc(NCc3ccccc3O)nc21 |
